Reference: publication PMC7265341, “Quantifying CDK inhibitor selectivity in live cells” (Nature Communications, 2020)
Like-named read-outs stand apart in the source and are kept apart here.

Columns and labels:
CDK20/Cyclin H = CDK20/Cyclin H (Homo sapiens, UniProt Q8IZL9); experiment: NanoBRET live-cell target engagement, NanoLuc-CDK20/Cyclin H in HEK-293; assay type: binding; settings: CDK20/H, 10µM
CDK6/Cyclin D1 = CDK6/Cyclin D1 (Homo sapiens, UniProt Q00534); experiment: NanoBRET live-cell target engagement, NanoLuc-CDK6/Cyclin D1 in HEK-293; assay type: binding; settings: CDK6/D1, 10µM
Chain of CDK6/Cyclin D1 (Q00534 whole entry): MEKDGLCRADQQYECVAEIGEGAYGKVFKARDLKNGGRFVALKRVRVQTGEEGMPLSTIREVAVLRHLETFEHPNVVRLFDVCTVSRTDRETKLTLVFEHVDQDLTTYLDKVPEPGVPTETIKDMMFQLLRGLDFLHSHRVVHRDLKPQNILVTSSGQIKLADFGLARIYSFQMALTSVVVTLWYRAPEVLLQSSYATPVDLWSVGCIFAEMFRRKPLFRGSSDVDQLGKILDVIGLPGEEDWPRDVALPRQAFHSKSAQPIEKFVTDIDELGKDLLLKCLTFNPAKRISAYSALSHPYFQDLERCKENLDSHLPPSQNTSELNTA
Chain of CDK6/Cyclin D1 (P24385 whole entry partner): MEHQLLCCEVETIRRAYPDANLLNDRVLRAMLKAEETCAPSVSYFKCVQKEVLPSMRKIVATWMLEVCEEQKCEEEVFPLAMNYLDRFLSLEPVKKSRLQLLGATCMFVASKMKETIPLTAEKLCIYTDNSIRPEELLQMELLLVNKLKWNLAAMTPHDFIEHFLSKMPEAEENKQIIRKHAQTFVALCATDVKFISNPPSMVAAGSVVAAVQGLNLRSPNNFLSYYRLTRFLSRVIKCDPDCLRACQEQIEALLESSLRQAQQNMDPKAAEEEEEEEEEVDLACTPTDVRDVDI

CDK7 = CDK7 (Homo sapiens, UniProt P50613); experiment: NanoBRET live-cell target engagement, NanoLuc-CDK7 in HEK-293; assay type: binding; settings: CDK7
Chain of CDK7 (P50613 whole entry): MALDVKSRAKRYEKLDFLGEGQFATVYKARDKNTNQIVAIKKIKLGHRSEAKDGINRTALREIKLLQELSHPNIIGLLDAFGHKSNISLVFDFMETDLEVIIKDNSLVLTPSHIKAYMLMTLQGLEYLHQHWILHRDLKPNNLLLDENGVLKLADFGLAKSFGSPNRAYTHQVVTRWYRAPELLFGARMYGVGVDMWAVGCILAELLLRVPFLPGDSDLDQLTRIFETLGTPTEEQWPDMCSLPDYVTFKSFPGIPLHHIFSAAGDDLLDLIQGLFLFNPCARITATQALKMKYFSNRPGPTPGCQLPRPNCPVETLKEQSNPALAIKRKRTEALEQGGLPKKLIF

CDK9/Cyclin K = CDK9/Cyclin K (Homo sapiens, UniProt P50750); experiment: NanoBRET live-cell target engagement, NanoLuc-CDK9/Cyclin K in HEK-293; assay type: binding; settings: CDK9/K, 10µM
CDK11A/Cyclin L2 = target: T1, CDK11A/Cyclin L2 (Homo sapiens, UniProt Q9UQ88); experiment: NanoBRET live-cell target engagement, CDK11A-NanoLuc/Cyclin L2 in HEK-293; assay type: binding; settings: CDK11a/L2, 10µM
T1 sequence (Q9UQ88 1-783): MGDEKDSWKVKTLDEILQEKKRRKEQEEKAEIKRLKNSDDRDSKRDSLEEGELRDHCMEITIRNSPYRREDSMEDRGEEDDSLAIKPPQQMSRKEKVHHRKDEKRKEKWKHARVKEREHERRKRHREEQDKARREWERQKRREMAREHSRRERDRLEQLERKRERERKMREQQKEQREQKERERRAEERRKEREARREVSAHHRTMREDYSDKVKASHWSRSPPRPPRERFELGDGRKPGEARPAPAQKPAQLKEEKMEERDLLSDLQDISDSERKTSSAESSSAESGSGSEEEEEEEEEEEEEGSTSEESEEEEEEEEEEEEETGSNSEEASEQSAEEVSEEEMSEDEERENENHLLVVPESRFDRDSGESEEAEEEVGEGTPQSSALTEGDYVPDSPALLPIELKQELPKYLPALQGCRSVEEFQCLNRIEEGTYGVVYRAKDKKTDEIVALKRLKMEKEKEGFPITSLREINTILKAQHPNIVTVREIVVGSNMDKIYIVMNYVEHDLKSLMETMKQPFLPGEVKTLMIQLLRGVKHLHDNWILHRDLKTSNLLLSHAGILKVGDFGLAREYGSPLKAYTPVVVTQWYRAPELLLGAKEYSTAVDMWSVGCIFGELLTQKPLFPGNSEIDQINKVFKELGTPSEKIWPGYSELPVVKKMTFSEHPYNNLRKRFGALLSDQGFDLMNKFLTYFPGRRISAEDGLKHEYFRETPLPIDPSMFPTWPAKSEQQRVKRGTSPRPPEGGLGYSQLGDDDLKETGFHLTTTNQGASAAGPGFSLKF

CDK10/Cyclin L2 = CDK10/Cyclin L2 (Homo sapiens, UniProt Q15131); experiment: NanoBRET live-cell target engagement, CDK10-NanoLuc/Cyclin L2 in HEK-293; settings: 10µM
CDK13/Cyclin K = CDK13/Cyclin K (Homo sapiens, UniProt Q14004); experiment: NanoBRET live-cell target engagement, CDK13-NanoLuc/Cyclin K in HEK-293; assay type: binding; settings: CDK13/K, 10µM
CDK19/Cyclin C = CDK19/Cyclin C (Homo sapiens, UniProt Q9BWU1); experiment: NanoBRET live-cell target engagement, NanoLuc-CDK19/Cyclin C in HEK-293
Chain of CDK19/Cyclin C (Q9BWU1 whole entry): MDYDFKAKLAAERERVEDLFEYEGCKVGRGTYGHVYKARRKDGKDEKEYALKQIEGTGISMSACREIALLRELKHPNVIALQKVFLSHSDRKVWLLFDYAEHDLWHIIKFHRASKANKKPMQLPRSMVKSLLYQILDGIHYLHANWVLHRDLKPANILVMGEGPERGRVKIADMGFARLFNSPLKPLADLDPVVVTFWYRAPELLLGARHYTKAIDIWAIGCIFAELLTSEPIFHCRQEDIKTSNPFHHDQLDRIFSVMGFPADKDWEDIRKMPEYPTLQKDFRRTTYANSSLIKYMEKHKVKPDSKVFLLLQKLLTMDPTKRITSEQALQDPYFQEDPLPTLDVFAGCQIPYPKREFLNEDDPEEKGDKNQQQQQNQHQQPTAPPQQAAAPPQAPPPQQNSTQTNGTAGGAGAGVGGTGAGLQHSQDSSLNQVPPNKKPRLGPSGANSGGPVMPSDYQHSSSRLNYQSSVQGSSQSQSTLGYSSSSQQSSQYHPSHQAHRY
Chain of CDK19/Cyclin C (P24863 whole entry partner): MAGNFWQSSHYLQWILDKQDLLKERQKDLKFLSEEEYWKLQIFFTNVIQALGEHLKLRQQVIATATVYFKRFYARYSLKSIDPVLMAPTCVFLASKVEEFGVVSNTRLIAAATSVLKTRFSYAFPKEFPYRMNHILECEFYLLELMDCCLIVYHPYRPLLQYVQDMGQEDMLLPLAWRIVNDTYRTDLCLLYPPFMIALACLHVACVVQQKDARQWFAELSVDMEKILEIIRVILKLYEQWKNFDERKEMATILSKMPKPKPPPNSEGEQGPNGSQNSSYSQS

CDK11B/Cyclin L2 = CDK11B/Cyclin L2 (Homo sapiens, UniProt P21127); experiment: NanoBRET live-cell target engagement, CDK11B-NanoLuc/Cyclin L2 in HEK-293; assay type: binding; settings: CDK11b/L2, 10µM
Chain of CDK11B/Cyclin L2 (P21127 1-782 isoform P21127-2): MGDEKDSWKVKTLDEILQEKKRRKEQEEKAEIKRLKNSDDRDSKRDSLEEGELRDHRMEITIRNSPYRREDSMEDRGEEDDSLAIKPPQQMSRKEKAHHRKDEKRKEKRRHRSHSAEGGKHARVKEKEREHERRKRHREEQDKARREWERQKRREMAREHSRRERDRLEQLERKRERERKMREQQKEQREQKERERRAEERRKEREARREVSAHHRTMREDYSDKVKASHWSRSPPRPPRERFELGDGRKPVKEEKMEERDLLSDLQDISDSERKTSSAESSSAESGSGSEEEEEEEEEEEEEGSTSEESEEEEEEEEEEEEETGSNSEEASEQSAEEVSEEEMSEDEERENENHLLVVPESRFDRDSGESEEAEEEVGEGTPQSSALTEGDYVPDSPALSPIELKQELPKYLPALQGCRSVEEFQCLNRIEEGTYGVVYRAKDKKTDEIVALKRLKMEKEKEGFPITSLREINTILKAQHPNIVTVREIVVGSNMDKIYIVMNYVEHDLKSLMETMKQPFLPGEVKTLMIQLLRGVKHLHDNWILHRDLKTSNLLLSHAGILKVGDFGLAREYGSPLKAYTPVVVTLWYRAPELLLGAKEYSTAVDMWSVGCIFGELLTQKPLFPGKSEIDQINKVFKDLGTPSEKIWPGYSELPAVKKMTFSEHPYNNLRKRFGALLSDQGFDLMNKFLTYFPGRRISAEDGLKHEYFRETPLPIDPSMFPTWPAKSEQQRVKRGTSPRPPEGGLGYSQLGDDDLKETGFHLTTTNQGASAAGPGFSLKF

CDK8/Cyclin C = CDK8/Cyclin C (Homo sapiens, UniProt P49336); experiment: NanoBRET live-cell target engagement, NanoLuc-CDK8/Cyclin C in HEK-293; assay type: binding
Chain of CDK8/Cyclin C (P49336 whole entry): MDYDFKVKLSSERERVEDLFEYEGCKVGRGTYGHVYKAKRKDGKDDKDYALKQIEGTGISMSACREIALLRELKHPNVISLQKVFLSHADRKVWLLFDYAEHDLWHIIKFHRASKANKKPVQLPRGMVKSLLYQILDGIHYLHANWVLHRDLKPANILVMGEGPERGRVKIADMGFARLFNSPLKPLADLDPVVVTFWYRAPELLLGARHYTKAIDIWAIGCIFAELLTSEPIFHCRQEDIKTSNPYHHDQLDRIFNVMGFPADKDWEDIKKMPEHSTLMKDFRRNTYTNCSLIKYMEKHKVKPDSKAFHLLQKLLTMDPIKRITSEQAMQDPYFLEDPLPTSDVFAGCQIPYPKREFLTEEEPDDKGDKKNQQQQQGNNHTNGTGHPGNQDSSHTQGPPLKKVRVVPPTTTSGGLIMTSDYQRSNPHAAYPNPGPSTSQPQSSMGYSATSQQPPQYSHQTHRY
Chain of CDK8/Cyclin C (P24863 whole entry partner): as the sequence (P24863 whole entry partner) above

CDK1/Cyclin E1 = CDK1/Cyclin E1 (Homo sapiens, UniProt P06493); experiment: NanoBRET live-cell target engagement, CDK1-NanoLuc/Cyclin E1 in HEK-293; assay type: binding; settings: CDK1/E1, 10µM
Chain of CDK1/Cyclin E1 (P06493 whole entry): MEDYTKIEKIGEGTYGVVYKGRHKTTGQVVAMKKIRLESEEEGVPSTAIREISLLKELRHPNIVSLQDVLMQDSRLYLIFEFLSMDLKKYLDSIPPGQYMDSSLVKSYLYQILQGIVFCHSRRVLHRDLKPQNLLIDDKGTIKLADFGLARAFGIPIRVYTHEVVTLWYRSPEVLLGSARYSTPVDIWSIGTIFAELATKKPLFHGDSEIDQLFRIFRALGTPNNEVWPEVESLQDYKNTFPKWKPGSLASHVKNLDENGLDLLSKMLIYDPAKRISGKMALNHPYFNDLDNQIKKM
Chain of CDK1/Cyclin E1 (P24864 whole entry partner): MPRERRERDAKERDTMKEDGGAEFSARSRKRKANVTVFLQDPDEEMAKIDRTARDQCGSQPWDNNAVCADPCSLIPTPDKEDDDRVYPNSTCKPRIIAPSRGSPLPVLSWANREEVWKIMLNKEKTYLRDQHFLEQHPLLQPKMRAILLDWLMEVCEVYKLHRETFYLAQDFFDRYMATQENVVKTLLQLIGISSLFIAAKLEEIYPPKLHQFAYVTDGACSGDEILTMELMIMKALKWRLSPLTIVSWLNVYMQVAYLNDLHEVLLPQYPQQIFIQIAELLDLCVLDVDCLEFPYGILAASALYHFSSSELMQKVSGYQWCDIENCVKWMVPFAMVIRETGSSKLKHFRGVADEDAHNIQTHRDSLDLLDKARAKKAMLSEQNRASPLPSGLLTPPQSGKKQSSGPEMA

CDK4/Cyclin D1 = CDK4/Cyclin D1 (Homo sapiens, UniProt P11802); experiment: NanoBRET live-cell target engagement, NanoLuc-CDK4/Cyclin D1 in HEK-293; assay type: binding; settings: CDK4/D1, 10µM
Chain of CDK4/Cyclin D1 (P11802 whole entry): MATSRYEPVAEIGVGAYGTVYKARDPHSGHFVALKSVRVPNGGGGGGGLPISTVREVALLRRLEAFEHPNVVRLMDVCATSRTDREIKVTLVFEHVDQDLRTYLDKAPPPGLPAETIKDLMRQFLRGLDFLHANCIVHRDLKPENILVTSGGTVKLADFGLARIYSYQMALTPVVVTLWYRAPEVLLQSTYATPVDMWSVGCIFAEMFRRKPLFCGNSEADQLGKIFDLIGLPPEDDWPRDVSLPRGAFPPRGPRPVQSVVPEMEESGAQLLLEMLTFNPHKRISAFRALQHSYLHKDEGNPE
Chain of CDK4/Cyclin D1 (P24385 whole entry partner): as the sequence (P24385 whole entry partner) above

CDK12/Cyclin K = CDK12/Cyclin K (Homo sapiens, UniProt Q9NYV4); experiment: NanoBRET live-cell target engagement, CDK12-NanoLuc/Cyclin K in HEK-293; assay type: binding; settings: CDK12/K, 10µM
CDK5/CDK5R1 = CDK5/CDK5R1 (Homo sapiens, UniProt Q00535); experiment: NanoBRET live-cell target engagement, CDK5-NanoLuc/CDK5R1 in HEK-293; assay type: binding; settings: CDK5/CDK5R1, 10µM
Chain of CDK5/CDK5R1 (Q00535 whole entry): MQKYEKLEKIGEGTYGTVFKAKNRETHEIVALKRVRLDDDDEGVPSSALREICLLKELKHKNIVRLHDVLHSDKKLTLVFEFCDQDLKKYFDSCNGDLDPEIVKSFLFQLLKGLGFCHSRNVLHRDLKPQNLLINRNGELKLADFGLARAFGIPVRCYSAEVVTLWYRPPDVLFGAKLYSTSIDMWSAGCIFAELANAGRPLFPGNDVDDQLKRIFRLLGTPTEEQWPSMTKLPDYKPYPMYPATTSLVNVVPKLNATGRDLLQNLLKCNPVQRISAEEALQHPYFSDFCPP
Chain of CDK5/CDK5R1 (Q15078 whole entry partner): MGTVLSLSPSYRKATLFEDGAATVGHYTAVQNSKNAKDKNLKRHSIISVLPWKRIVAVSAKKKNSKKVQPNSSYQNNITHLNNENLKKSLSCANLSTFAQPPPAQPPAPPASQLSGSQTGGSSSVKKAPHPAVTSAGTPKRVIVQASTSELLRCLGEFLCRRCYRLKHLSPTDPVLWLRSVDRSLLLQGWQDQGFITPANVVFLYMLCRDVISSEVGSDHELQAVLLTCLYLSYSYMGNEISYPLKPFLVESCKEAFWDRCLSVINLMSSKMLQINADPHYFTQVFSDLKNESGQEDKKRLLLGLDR

[1] = read-out: Inhibition at 10µM (%) Replicate 1
[2] = read-out: Inhibition at 10µM (%) Replicate 2
[3] = average of replicates, read-out: Inhibition at 10µM (%) Average

CCN1CCN(Cc2ccc(NC(=O)Nc3ccc(Oc4cc(NC)ncn4)cc3)cc2C(F)(F)F)CC1 [AST-487]
inhibition at 10 µM (CDK20/Cyclin H; [1]): 38.4% | inhibition at 10 µM (CDK20/Cyclin H; [2]): 80.6% | inhibition at 10 µM (CDK6/Cyclin D1; [3]): 50.9% | inhibition at 10 µM (CDK6/Cyclin D1; [1]): 15.7% | inhibition at 10 µM (CDK6/Cyclin D1; [2]): 86.2% | inhibition at 10 µM (CDK7; [3]): 70.4% | inhibition at 10 µM (CDK7; [1]): 74.2% | inhibition at 10 µM (CDK7; [2]): 66.6% | IC50 (CDK7; n=3 average ± SEM, n=2 average to 2 significant figures, read-out: IC50 (nM) Average*): 760 nM | IC50 (CDK7; read-out: IC50 (nM) Replicate 1): 660 nM | IC50 (CDK7; read-out: IC50 (nM) Replicate 2): 860 nM | inhibition at 10 µM (CDK9/Cyclin K; [3]): 83.3% | inhibition at 10 µM (CDK9/Cyclin K; [1]): 72.3% | inhibition at 10 µM (CDK9/Cyclin K; [2]): 94.4% | inhibition at 10 µM (CDK11A/Cyclin L2; [3]): 49% | inhibition at 10 µM (CDK11A/Cyclin L2; [1]): 22.5% | inhibition at 10 µM (CDK11A/Cyclin L2; [2]): 75.4% | inhibition at 10 µM (CDK10/Cyclin L2; read-out: Inhibition at 10µM (%) Average, CDK10/L2, average of replicates): 84.1% | inhibition at 10 µM (CDK10/Cyclin L2; read-out: Inhibition at 10µM (%) Replicate 1, CDK10/L2): 74.4% | inhibition at 10 µM (CDK10/Cyclin L2; read-out: Inhibition at 10µM (%) Replicate 2, CDK10/L2): 93.8% | inhibition at 10 µM (CDK13/Cyclin K; [3]): 47.2% | inhibition at 10 µM (CDK13/Cyclin K; [1]): 28% | inhibition at 10 µM (CDK13/Cyclin K; [2]): 66.3% | IC50 (CDK19/Cyclin C; IC50 (nM) Average*, CDK19/Y, n=3 average ± SEM, n=2 average to 2 significant figures): 25 nM | IC50 (CDK19/Cyclin C; IC50 (nM) Replicate 1, CDK19/C): 28 nM | IC50 (CDK19/Cyclin C; IC50 (nM) Replicate 2, CDK19/C): 22 nM | IC50 (CDK19/Cyclin C; IC50, [Probe 1] 0.5 µM (plot: [Probe 3]), n=1): 9.4 nM | IC50 (CDK19/Cyclin C; IC50, [Probe 1] 1 µM (plot: [Probe 3]), n=1): 10 nM | inhibition at 10 µM (CDK19/Cyclin C; read-out: Inhibition at 10µM (%) Average, CDK19/C, average of replicates): 98.4% | inhibition at 10 µM (CDK19/Cyclin C; read-out: Inhibition at 10µM (%) Replicate 1, CDK19/C): 94.2% | inhibition at 10 µM (CDK19/Cyclin C; read-out: Inhibition at 10µM (%) Replicate 2, CDK19/C): 103% | inhibition at 10 µM (CDK11B/Cyclin L2; [3]): 10.3% | inhibition at 10 µM (CDK11B/Cyclin L2; [1]): 10.9% | inhibition at 10 µM (CDK11B/Cyclin L2; [2]): 9.7% | inhibition at 10 µM (CDK8/Cyclin C; CDK8/C, average of replicates, read-out: Inhibition at 10µM (%) Average): 95.7% | inhibition at 10 µM (CDK8/Cyclin C; CDK8/C, read-out: Inhibition at 10µM (%) Replicate 1): 95.7% | inhibition at 10 µM (CDK8/Cyclin C; CDK8/C, read-out: Inhibition at 10µM (%) Replicate 2): 95.7% | IC50 (CDK8/Cyclin C; CDK8/C, n=3 average ± SEM, n=2 average to 2 significant figures, read-out: IC50 (nM) Average*): 24 nM | IC50 (CDK8/Cyclin C; CDK8/C, read-out: IC50 (nM) Replicate 1): 23 nM | IC50 (CDK8/Cyclin C; CDK8/C, read-out: IC50 (nM) Replicate 2): 25 nM | IC50 (CDK8/Cyclin C; [Probe 3] 0.5 µM, n=1, read-out: IC50): 48 nM | inhibition at 10 µM (CDK1/Cyclin E1; [3]): 75.2% | inhibition at 10 µM (CDK1/Cyclin E1; [1]): 59.8% | inhibition at 10 µM (CDK1/Cyclin E1; [2]): 90.6% | inhibition at 10 µM (CDK4/Cyclin D1; [3]): 75.5% | inhibition at 10 µM (CDK4/Cyclin D1; [1]): 55.7% | inhibition at 10 µM (CDK4/Cyclin D1; [2]): 95.3% | inhibition at 10 µM (CDK12/Cyclin K; [3]): 53.4% | inhibition at 10 µM (CDK12/Cyclin K; [1]): 34.4% | inhibition at 10 µM (CDK12/Cyclin K; [2]): 72.3% | inhibition at 10 µM (CDK5/CDK5R1; [3]): 38.1% | inhibition at 10 µM (CDK5/CDK5R1; [1]): 12.7% | inhibition at 10 µM (CDK5/CDK5R1; [2]): 63.5%
